Patent US20120029190A1, “COMPOUNDS FOR TREATING DISORDERS MEDIATED BY METABOTROPIC GLUTAMATE RECEPTOR 5, AND METHODS OF USE THEREOF” (priority 2009, published 2012)

target: T1, human recombinant mGluR5 receptor (Homo sapiens, UniProt P41594); experiment: mGluR5 in vitro functional assay (aequorin cell line, inhibition of glutamate EC80 response); type: cell-based; conditions: not given
T1 construct: expressed in transfected cells; expression induced with doxycycline
Description: B. mGluR5 In Vitro Functional Assay
The functional assay utilized an aequorin cell line expressing human recombinant mGluR5 receptor, an inducible cell line that expresses the human receptor under the control of a promoter induced by doxycycline.
mGluR5 cells in mid-log phase, grown 18 hours prior to the test in antibiotic-free media supplemented with doxycycline (600 ng/mL), were detached by gentle flushing with PBS-EDTA ([…]). The cells were recovered by centrifugation and resuspended in assay buffer (HBSS, […], 3 ug/mL glutamate-pyruvate transaminase, […] MEM sodium pyruvate, 0.1% BSA protease-free). Cells were incubated at room temperature for at least 4 hours with Coelenterazine h (Molecular Probes). The cell suspension (60 uL) containing the test compound was mixed with a solution of reference agonist (30 uL) at its EC80, following an incubation of 3 min. after the first injection. The resulting emission of light was recorded using a Hamamatsu Functional Drug Screening System 6000 (FDSS 6000). To standardize the emission of recorded light (determination of the “100% signal’) across plates and across different experiments, some of the wells contained 100 uM digitonin or a saturating concentration (20 mM) of ATP. Plates also contained the reference agonist (glutamate) at a concentration equivalent to the EC80 obtained during assay validation. Percentages of inhibition were calculated on the basis of the activation induced by the reference agonist at a concentration equal to the EC80. Dose-response data were analyzed with XLFit (IDBS) software using nonlinear regression applied to a sigmoidal dose-response model.

T1 sequence (P41594 21-1212): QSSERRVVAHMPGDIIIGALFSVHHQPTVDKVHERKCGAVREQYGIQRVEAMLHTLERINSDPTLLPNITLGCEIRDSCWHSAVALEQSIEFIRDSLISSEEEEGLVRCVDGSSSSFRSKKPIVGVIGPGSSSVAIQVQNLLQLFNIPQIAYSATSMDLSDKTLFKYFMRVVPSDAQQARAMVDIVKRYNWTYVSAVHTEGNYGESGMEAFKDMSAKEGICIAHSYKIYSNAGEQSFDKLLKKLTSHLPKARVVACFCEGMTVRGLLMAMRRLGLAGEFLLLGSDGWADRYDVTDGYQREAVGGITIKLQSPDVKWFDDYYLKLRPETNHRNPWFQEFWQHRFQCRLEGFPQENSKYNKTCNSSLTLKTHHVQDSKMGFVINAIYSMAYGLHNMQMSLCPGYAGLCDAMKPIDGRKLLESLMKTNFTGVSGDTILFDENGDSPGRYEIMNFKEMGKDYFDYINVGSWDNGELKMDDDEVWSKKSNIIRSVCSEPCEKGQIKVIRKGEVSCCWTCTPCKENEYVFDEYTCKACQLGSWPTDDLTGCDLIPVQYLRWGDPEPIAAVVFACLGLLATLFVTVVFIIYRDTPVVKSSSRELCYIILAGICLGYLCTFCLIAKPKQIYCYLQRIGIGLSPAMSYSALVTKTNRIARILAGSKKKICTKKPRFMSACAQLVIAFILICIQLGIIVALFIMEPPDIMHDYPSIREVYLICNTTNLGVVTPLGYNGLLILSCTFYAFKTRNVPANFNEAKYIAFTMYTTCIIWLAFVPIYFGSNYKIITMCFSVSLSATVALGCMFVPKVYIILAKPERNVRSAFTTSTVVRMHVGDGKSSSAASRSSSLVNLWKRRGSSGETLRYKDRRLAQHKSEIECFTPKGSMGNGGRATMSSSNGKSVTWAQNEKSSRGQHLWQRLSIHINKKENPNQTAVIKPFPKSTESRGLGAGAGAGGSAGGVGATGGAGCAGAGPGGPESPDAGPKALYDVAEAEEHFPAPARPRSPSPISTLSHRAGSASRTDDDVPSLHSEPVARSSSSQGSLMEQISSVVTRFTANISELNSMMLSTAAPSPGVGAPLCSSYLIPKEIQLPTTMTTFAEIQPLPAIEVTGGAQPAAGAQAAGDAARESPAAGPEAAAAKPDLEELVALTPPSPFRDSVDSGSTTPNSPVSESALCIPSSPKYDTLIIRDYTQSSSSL

Row | SMILES | IC50
1 | N#Cc1ccc(N2CCc3oc(-c4ccccn4)nc3C2)cc1F [Compound 36, 2-Fluoro-4-(2-(pyridin-2-yl)-6,7-dihydrooxazolo[4,5-c]pyridin-5(4H)-yl)benzonitrile] | > 10000 nM

same assay, conditions: Table 1; aequorin cell line expressing human mGluR5, reference agonist glutamate at EC80; obtained in duplicate; read-out: IC50

Row | SMILES | IC50
2 | c1ccc(-c2nc3c(o2)CCN(c2ccccn2)C3)nc1 [Compound 27, 2,5-Di(pyridin-2-yl)-4,5,6,7-tetrahydrooxazolo[4,5-c]pyridine] | < 1000 nM
3 | N#Cc1cccnc1N1CCc2oc(-c3ccccn3)nc2C1 [Compound 28, 2-(2-(Pyridin-2-yl)-6,7-dihydrooxazolo[4,5-c]pyridin-5(4H)-yl)nicotinonitrile] | < 1000 nM
4 | N#Cc1cccc(N2CCc3oc(-c4ccccn4)nc3C2)n1 [Compound 29, 6-(2-(Pyridin-2-yl)-6,7-dihydrooxazolo[4,5-c]pyridin-5(4H)-yl)picolinonitrile] | < 1000 nM
5 | N#Cc1cc(F)cc(N2CCc3oc(-c4ccccn4)nc3C2)c1 [Compound 30, 3-Fluoro-5-(2-(pyridin-2-yl)-6,7-dihydrooxazolo[4,5-c]pyridin-5(4H)-yl)benzonitrile] | < 1000 nM
6 | Fc1cc(F)cc(N2CCc3oc(-c4ccccn4)nc3C2)c1 [Compound 31, 5-(3,5-Difluorophenyl)-2-(pyridin-2-yl)-4,5,6,7-tetrahydrooxazolo[4,5-c]pyridine] | < 1000 nM
7 | N#Cc1cc(N2CCc3oc(-c4ccccn4)nc3C2)cc(C(F)(F)F)c1 [Compound 32, 3-(2-(Pyridin-2-yl)-6,7-dihydrooxazolo[4,5-c]pyridin-5(4H)-yl)-5-(trifluoromethyl)benzonitrile] | < 1000 nM
8 | N#Cc1cc(F)cc(N2CCc3oc(-c4ccc(F)cn4)nc3C2)c1 [Compound 33, 3-Fluoro-5-(2-(5-fluoropyridin-2-yl)-6,7-dihydrooxazolo[4,5-c]pyridin-5(4H)-yl)benzonitrile] | < 1000 nM
9 | N#Cc1cccc(CN2CCc3oc(-c4ccccn4)nc3C2)c1 [Compound 34] | < 1000 nM
10 | N#Cc1cc(F)cc(CN2CCc3oc(-c4ccccn4)nc3C2)c1 [Compound 35, 3-Fluoro-5-((2-(pyridin-2-yl)-6,7-dihydrooxazolo-[4,5-c]pyridin-5(4H)-yl)methyl)benzonitrile] | < 10000 nM
11 | N#Cc1cccnc1N1CCc2oc(-c3ccccc3)nc2C1 [Compound 37, 2-(2-Phenyl-6,7-dihydrooxazolo[4,5-c]pyridin-5(4H)-yl)nicotinonitrile] | < 10000 nM
12 | c1ccc(-c2nc3c(o2)CCN(c2ccccn2)C3)cc1 [Compound 38, 2-Phenyl-5-(pyridin-2-yl)-4,5,6,7-tetrahydrooxazolo-[4,5-c]pyridine] | < 10000 nM
13 | N#Cc1cccnc1N1CCc2oc(-c3cccc(Cl)c3)nc2C1 [Compound 39, 2-(2-(3-Chlorophenyl)-6,7-dihydrooxazolo[4,5-c]pyridin-5(4H)-yl)nicotinonitrile] | < 1000 nM
14 | Clc1cccc(-c2nc3c(o2)CCN(c2ccccn2)C3)c1 [Compound 40, 2-(3-Chlorophenyl)-5-(pyridin-2-yl)-4,5,6,7-tetrahydrooxazolo[4,5-c]pyridine] | < 1000 nM
15 | Clc1cccc(-c2nc3c(o2)CCN(c2cnccn2)C3)c1 [Compound 41, 2-(3-Chlorophenyl)-5-(pyrazin-2-yl)-4,5,6,7-tetrahydrooxazolo[4,5-c]pyridine] | < 1000 nM
16 | COc1ccc(-c2nc3c(o2)CCN(c2cnccn2)C3)cc1 [Compound 42, 2-(4-Methoxyphenyl)-5-(pyrazin-2-yl)-4,5,6,7-tetrahydrooxazolo[4,5-c]pyridine] | > 10000 nM
17 | COc1ccc(-c2nc3c(o2)CCN(c2ncccc2C#N)C3)cc1 [Compound 43, 2-(2-(4-Methoxyphenyl)-6,7-dihydrooxazolo[4,5-c]pyridin-5(4H)-yl)nicotinonitrile] | > 10000 nM
18 | N#Cc1cccnc1N1CCc2oc(-c3ccc(C(F)(F)F)cc3)nc2C1 [Compound 44, 2-(2-(4-(Trifluoromethyl)phenyl)-6,7-dihydrooxazolo[4,5-c]pyridin-5(4H)-yl)nicotinonitrile] | > 10000 nM
19 | FC(F)(F)c1ccc(-c2nc3c(o2)CCN(c2cnccn2)C3)cc1 [Compound 45, 5-(Pyrazin-2-yl)-2-(4-(trifluoromethyl)phenyl)-4,5,6,7-tetrahydrooxazolo[4,5-c]pyridine] | > 10000 nM
20 | N#Cc1cccnc1N1CCc2oc(-c3ccc(F)cc3)nc2C1 [Compound 46, 2-(2-(4-Fluorophenyl)-6,7-dihydrooxazolo[4,5-c]pyridin-5(4H)-yl)nicotinonitrile] | > 10000 nM
21 | Fc1ccc(-c2nc3c(o2)CCN(c2cnccn2)C3)cc1 [Compound 47, 2-(4-Fluorophenyl)-5-(pyrazin-2-yl)-4,5,6,7-tetrahydrooxazolo[4,5-c]pyridine] | < 10000 nM

Row | SMILES | IC50
22 | Fc1ccc(-c2nc3c(o2)CCN(c2ccccn2)C3)cc1 [Compound 48, 2-(4-Fluorophenyl)-5-(pyridin-2-yl)-4,5,6,7-tetrahydrooxazolo[4,5-c]pyridine] | < 10000 nM
23 | c1ccc(-c2nc3c(o2)CCN(c2cnccn2)C3)cc1 [Compound 49, 2-Phenyl-5-(pyrazin-2-yl)-4,5,6,7-tetrahydrooxazolo[4,5-c]pyridine] | < 10000 nM
24 | Clc1cccc(-c2nc3c(o2)CCN(Cc2ccccn2)C3)c1 [Compound 50, 2-(3-Chlorophenyl)-5-(pyridin-2-ylmethyl)-4,5,6,7-tetrahydrooxazolo[4,5-c]pyridine] | < 10000 nM
25 | Clc1cccc(-c2nc3c(o2)CCN(c2cccnc2)C3)c1 [Compound 51, 2-(3-Chlorophenyl)-5-(pyridin-3-yl)-4,5,6,7-tetrahydrooxazolo[4,5-c]pyridine] | < 1000 nM
26 | N#Cc1nccnc1N1CCc2oc(-c3ccccc3)nc2C1 [Compound 52, 3-(2-Phenyl-6,7-dihydrooxazolo[4,5-c]pyridin-5(4H)-yl)pyrazine-2-carbonitrile] | < 10000 nM
27 | N#Cc1nccnc1N1CCc2oc(-c3cccc(Cl)c3)nc2C1 [Compound 53, 3-(2-(3-Chlorophenyl)-6,7-dihydrooxazolo[4,5-c]pyridin-5(4H)-yl)pyrazine-2-carbonitrile] | < 1000 nM
28 | O=C(c1ccc(F)cc1)N1CCc2oc(-c3ccc(F)cc3)nc2C1 [Compound 54, (4-Fluorophenyl)(2-(4-fluorophenyl)-6,7-dihydrooxazolo[4,5-c]pyridin-5(4H)-yl)methanone] | < 10000 nM
29 | c1ccc(-c2nc3c(o2)CCN(c2nccs2)C3)nc1 [Compound 55, 2-(Pyridin-2-yl)-5-(thiazol-2-yl)-4,5,6,7-tetrahydrooxazolo[4,5-c]pyridine] | < 1000 nM
30 | COc1cc(F)cc(N2CCc3oc(-c4ccccn4)nc3C2)c1 [Compound 56, 5-(3-Fluoro-5-methoxyphenyl)-2-(pyridin-2-yl)-4,5,6,7-tetrahydrooxazolo[4,5-c]pyridine] | < 1000 nM
31 | N#Cc1cc(N2CCc3oc(-c4ccccn4)nc3C2)ccc1F [Compound 57, 2-Fluoro-5-(2-(pyridin-2-yl)-6,7-dihydrooxazolo[4,5-c]pyridin-5(4H)-yl)benzonitrile] | < 10000 nM
32 | Cc1cccc(-c2nc3c(o2)CN(c2ccccn2)CC3)c1 [Compound 58, 5-(Pyridin-2-yl)-2-m-tolyl-4,5,6,7-tetrahydrooxazolo[5,4-c]pyridine] | < 1000 nM
33 | Cc1cccc(-c2nc3c(o2)CN(c2ncccc2C#N)CC3)c1 [Compound 59, 2-(2-m-Tolyl-6,7-dihydrooxazolo[5,4-c]pyridin-5(4H)-yl)nicotinonitrile] | < 1000 nM
34 | Cc1cccc(-c2nc3c(o2)CCN(c2ccccn2)C3)c1 [Compound 60, 5-(Pyridin-2-yl)-2-m-tolyl-4,5,6,7-tetrahydrooxazolo-[4,5-c]pyridine] | < 1000 nM
35 | Cc1cccc(-c2nc3c(o2)CCN(c2ncccc2C#N)C3)c1 [Compound 61, 2-(2-m-Tolyl-6,7-dihydrooxazolo[4,5-c]pyridin-5(4H)-yl)nicotinonitrile] | < 1000 nM
36 | N#Cc1cccc(-c2nc3c(o2)CCN(c2ccccn2)C3)c1 [Compound 62, 3-(5-(Pyridin-2-yl)-4,5,6,7-tetrahydrooxazolo[4,5-c]pyridin-2-yl)benzonitrile] | > 10000 nM
37 | N#Cc1cccc(-c2nc3c(o2)CCN(c2ncccc2C#N)C3)c1 [Compound 63, 2-(2-(3-Cyanophenyl)-6,7-dihydrooxazolo[4,5-c]pyridin-5(4H)-yl)nicotinonitrile] | < 10000 nM
38 | N#Cc1cccc(-c2nc3c(o2)CCN(c2cccc(C#N)c2)C3)c1 [Compound 64, 3,3′-(6,7-Dihydrooxazolo[4,5-c]pyridine-2,5(4H)-diyl)dibenzonitrile] | < 1000 nM
39 | N#Cc1cccc(-c2nc3c(o2)CN(c2ccccn2)CC3)c1 [Compound 65, 3-(5-(Pyridin-2-yl)-4,5,6,7-tetrahydrooxazolo[5,4-c]pyridin-2-yl)benzonitrile] | > 10000 nM
40 | N#Cc1cccc(-c2nc3c(o2)CN(c2ncccc2C#N)CC3)c1 [Compound 66, 2-(2-(3-Cyanophenyl)-6,7-dihydrooxazolo[5,4-c]pyridin-5(4H)-yl)nicotinonitrile] | < 10000 nM
41 | N#Cc1cccc(-c2nc3c(o2)CN(c2cccc(C#N)c2)CC3)c1 [Compound 67, 3,3′-(6,7-Dihydrooxazolo[5,4-c]pyridine-2,5(4H)-diyl)dibenzonitrile] | < 1000 nM
